Reference: ChEMBL document CHEMBL3352350, “Syntheses and structure-activity relationships in cytotoxicities of 13-substituted quaternary coptisine derivatives” (Eur J Med Chem, 2014)

System: not listed separately
Experiment: Cytotoxicity against human Bel7402 cells assessed as growth inhibition rate at 0.1 to 100 umol/L after 96 hrs by MTT assay
Type: functional, Bel-7402
Settings: not given

Row | Structure (SMILES) | growth inhibition (GI) [%]
1 | C1=C2c3cc4c(cc3CCN2Cc2c1ccc1c2OCO1)OCO4 | 27.27
2 | Cc1c2[n+](cc3c4c(ccc13)OCO4)CCc1cc3c(cc1-2)OCO3.[Cl-] | 2.43
3 | CCc1c2[n+](cc3c4c(ccc13)OCO4)CCc1cc3c(cc1-2)OCO3.[Cl-] | 10.19
4 | CCCc1c2[n+](cc3c4c(ccc13)OCO4)CCc1cc3c(cc1-2)OCO3.[Cl-] | -23.7
5 | CCCCc1c2[n+](cc3c4c(ccc13)OCO4)CCc1cc3c(cc1-2)OCO3.[Cl-] | 21.81
6 | CCCCCc1c2[n+](cc3c4c(ccc13)OCO4)CCc1cc3c(cc1-2)OCO3.[Cl-] | 5.82
7 | CC(C)CCc1c2[n+](cc3c4c(ccc13)OCO4)CCc1cc3c(cc1-2)OCO3.[Cl-] | -2.18
8 | CCCCCCc1c2[n+](cc3c4c(ccc13)OCO4)CCc1cc3c(cc1-2)OCO3.[Cl-] | 74.26
9 | CCCCCCCc1c2[n+](cc3c4c(ccc13)OCO4)CCc1cc3c(cc1-2)OCO3.[Cl-] | 86.6
10 | CCCCCCCCc1c2[n+](cc3c4c(ccc13)OCO4)CCc1cc3c(cc1-2)OCO3.[Cl-] | 89.32
11 | CCCCCCCCCc1c2[n+](cc3c4c(ccc13)OCO4)CCc1cc3c(cc1-2)OCO3.[Cl-] | 43.46

System: not listed separately
Experiment: Cytotoxicity against human HCT8 cells assessed as growth inhibition rate at 0.1 to 100 umol/L after 96 hrs by MTT assay
Type: functional, HCT-8
Settings: not given

Row | Structure (SMILES) | growth inhibition (GI) [%]
12 | C1=C2c3cc4c(cc3CCN2Cc2c1ccc1c2OCO1)OCO4 | 30.88
13 | Cc1c2[n+](cc3c4c(ccc13)OCO4)CCc1cc3c(cc1-2)OCO3.[Cl-] | 35.62
14 | CCc1c2[n+](cc3c4c(ccc13)OCO4)CCc1cc3c(cc1-2)OCO3.[Cl-] | 39.7
15 | CCCc1c2[n+](cc3c4c(ccc13)OCO4)CCc1cc3c(cc1-2)OCO3.[Cl-] | 40.68
16 | CCCCc1c2[n+](cc3c4c(ccc13)OCO4)CCc1cc3c(cc1-2)OCO3.[Cl-] | 32.57
17 | CCCCCc1c2[n+](cc3c4c(ccc13)OCO4)CCc1cc3c(cc1-2)OCO3.[Cl-] | 59.02
18 | CC(C)CCc1c2[n+](cc3c4c(ccc13)OCO4)CCc1cc3c(cc1-2)OCO3.[Cl-] | 30.75
19 | CCCCCCc1c2[n+](cc3c4c(ccc13)OCO4)CCc1cc3c(cc1-2)OCO3.[Cl-] | 59.24
20 | CCCCCCCc1c2[n+](cc3c4c(ccc13)OCO4)CCc1cc3c(cc1-2)OCO3.[Cl-] | 61.02
21 | CCCCCCCCc1c2[n+](cc3c4c(ccc13)OCO4)CCc1cc3c(cc1-2)OCO3.[Cl-] | 65.54
22 | CCCCCCCCCc1c2[n+](cc3c4c(ccc13)OCO4)CCc1cc3c(cc1-2)OCO3.[Cl-] | 43.24

System: A549
Experiment: Cytotoxicity against human A549 cells assessed as growth inhibition rate at 0.1 to 100 umol/L after 96 hrs by MTT assay
Type: functional
Settings: not given

Row | Structure (SMILES) | growth inhibition (GI) [%]
23 | C1=C2c3cc4c(cc3CCN2Cc2c1ccc1c2OCO1)OCO4 | 32.09
24 | Cc1c2[n+](cc3c4c(ccc13)OCO4)CCc1cc3c(cc1-2)OCO3.[Cl-] | 42.83
25 | CCc1c2[n+](cc3c4c(ccc13)OCO4)CCc1cc3c(cc1-2)OCO3.[Cl-] | 41.74
26 | CCCc1c2[n+](cc3c4c(ccc13)OCO4)CCc1cc3c(cc1-2)OCO3.[Cl-] | 45.12
27 | CCCCc1c2[n+](cc3c4c(ccc13)OCO4)CCc1cc3c(cc1-2)OCO3.[Cl-] | 32.79
28 | CCCCCc1c2[n+](cc3c4c(ccc13)OCO4)CCc1cc3c(cc1-2)OCO3.[Cl-] | 49.34
29 | CC(C)CCc1c2[n+](cc3c4c(ccc13)OCO4)CCc1cc3c(cc1-2)OCO3.[Cl-] | 38.49
30 | CCCCCCc1c2[n+](cc3c4c(ccc13)OCO4)CCc1cc3c(cc1-2)OCO3.[Cl-] | 60.71
31 | CCCCCCCc1c2[n+](cc3c4c(ccc13)OCO4)CCc1cc3c(cc1-2)OCO3.[Cl-] | 71.89
32 | CCCCCCCCc1c2[n+](cc3c4c(ccc13)OCO4)CCc1cc3c(cc1-2)OCO3.[Cl-] | 73.99
33 | CCCCCCCCCc1c2[n+](cc3c4c(ccc13)OCO4)CCc1cc3c(cc1-2)OCO3.[Cl-] | 49.29

System: not listed separately
Experiment: Cytotoxicity against human C33A cells assessed as growth inhibition rate after 96 hrs by MTT assay
Type: functional, cell-based
Settings: C-33-A

Row | Structure (SMILES) | IC50
34 | C1=C2c3cc4c(cc3CCN2Cc2c1ccc1c2OCO1)OCO4 | > 5 µg/mL
35 | Cc1c2[n+](cc3c4c(ccc13)OCO4)CCc1cc3c(cc1-2)OCO3.[Cl-] | > 5 µg/mL
36 | CCc1c2[n+](cc3c4c(ccc13)OCO4)CCc1cc3c(cc1-2)OCO3.[Cl-] | > 5 µg/mL
37 | CCCc1c2[n+](cc3c4c(ccc13)OCO4)CCc1cc3c(cc1-2)OCO3.[Cl-] | > 5 µg/mL
38 | CCCCc1c2[n+](cc3c4c(ccc13)OCO4)CCc1cc3c(cc1-2)OCO3.[Cl-] | > 5 µg/mL
39 | CCCCCc1c2[n+](cc3c4c(ccc13)OCO4)CCc1cc3c(cc1-2)OCO3.[Cl-] | > 5 µg/mL
40 | CC(C)CCc1c2[n+](cc3c4c(ccc13)OCO4)CCc1cc3c(cc1-2)OCO3.[Cl-] | > 5 µg/mL
41 | CCCCCCc1c2[n+](cc3c4c(ccc13)OCO4)CCc1cc3c(cc1-2)OCO3.[Cl-] | > 5 µg/mL
42 | CCCCCCCc1c2[n+](cc3c4c(ccc13)OCO4)CCc1cc3c(cc1-2)OCO3.[Cl-] | 6.94 µM
43 | CCCCCCCCc1c2[n+](cc3c4c(ccc13)OCO4)CCc1cc3c(cc1-2)OCO3.[Cl-] | 7.31 µM
44 | CCCCCCCCCc1c2[n+](cc3c4c(ccc13)OCO4)CCc1cc3c(cc1-2)OCO3.[Cl-] | > 5 µg/mL

System: A549
Experiment: Cytotoxicity against human A549 cells assessed as growth inhibition rate after 96 hrs by MTT assay
Type: functional, cell-based
Settings: A549, 96 h

Row | Structure (SMILES) | IC50
45 | C1=C2c3cc4c(cc3CCN2Cc2c1ccc1c2OCO1)OCO4 | > 5 µg/mL
46 | Cc1c2[n+](cc3c4c(ccc13)OCO4)CCc1cc3c(cc1-2)OCO3.[Cl-] | > 5 µg/mL
47 | CCc1c2[n+](cc3c4c(ccc13)OCO4)CCc1cc3c(cc1-2)OCO3.[Cl-] | > 5 µg/mL
48 | CCCc1c2[n+](cc3c4c(ccc13)OCO4)CCc1cc3c(cc1-2)OCO3.[Cl-] | > 5 µg/mL
49 | CCCCc1c2[n+](cc3c4c(ccc13)OCO4)CCc1cc3c(cc1-2)OCO3.[Cl-] | > 5 µg/mL
50 | CCCCCc1c2[n+](cc3c4c(ccc13)OCO4)CCc1cc3c(cc1-2)OCO3.[Cl-] | > 5 µg/mL
51 | CC(C)CCc1c2[n+](cc3c4c(ccc13)OCO4)CCc1cc3c(cc1-2)OCO3.[Cl-] | > 5 µg/mL
52 | CCCCCCc1c2[n+](cc3c4c(ccc13)OCO4)CCc1cc3c(cc1-2)OCO3.[Cl-] | 5.57 µM
53 | CCCCCCCc1c2[n+](cc3c4c(ccc13)OCO4)CCc1cc3c(cc1-2)OCO3.[Cl-] | 2.58 µM
54 | CCCCCCCCc1c2[n+](cc3c4c(ccc13)OCO4)CCc1cc3c(cc1-2)OCO3.[Cl-] | 1.88 µM
55 | CCCCCCCCCc1c2[n+](cc3c4c(ccc13)OCO4)CCc1cc3c(cc1-2)OCO3.[Cl-] | > 5 µg/mL

System: not listed separately
Experiment: Cytotoxicity against human C33A cells assessed as growth inhibition rate at 0.1 to 100 umol/L after 96 hrs by MTT assay
Type: functional, C-33-A
Settings: not given

Row | Structure (SMILES) | growth inhibition (GI) [%]
56 | C1=C2c3cc4c(cc3CCN2Cc2c1ccc1c2OCO1)OCO4 | -10.65
57 | Cc1c2[n+](cc3c4c(ccc13)OCO4)CCc1cc3c(cc1-2)OCO3.[Cl-] | -7.22
58 | CCc1c2[n+](cc3c4c(ccc13)OCO4)CCc1cc3c(cc1-2)OCO3.[Cl-] | -7.45
59 | CCCc1c2[n+](cc3c4c(ccc13)OCO4)CCc1cc3c(cc1-2)OCO3.[Cl-] | -7.69
60 | CCCCc1c2[n+](cc3c4c(ccc13)OCO4)CCc1cc3c(cc1-2)OCO3.[Cl-] | -6.66
61 | CCCCCc1c2[n+](cc3c4c(ccc13)OCO4)CCc1cc3c(cc1-2)OCO3.[Cl-] | -5.79
62 | CC(C)CCc1c2[n+](cc3c4c(ccc13)OCO4)CCc1cc3c(cc1-2)OCO3.[Cl-] | 48.99
63 | CCCCCCc1c2[n+](cc3c4c(ccc13)OCO4)CCc1cc3c(cc1-2)OCO3.[Cl-] | 52.51
64 | CCCCCCCc1c2[n+](cc3c4c(ccc13)OCO4)CCc1cc3c(cc1-2)OCO3.[Cl-] | 63.75
65 | CCCCCCCCc1c2[n+](cc3c4c(ccc13)OCO4)CCc1cc3c(cc1-2)OCO3.[Cl-] | 63.28
66 | CCCCCCCCCc1c2[n+](cc3c4c(ccc13)OCO4)CCc1cc3c(cc1-2)OCO3.[Cl-] | -16.26

System: not listed separately
Experiment: Cytotoxicity against human HCT8 cells assessed as growth inhibition rate after 96 hrs by MTT assay
Type: functional, cell-based
Settings: HCT-8, 96 h

Row | Structure (SMILES) | IC50
67 | C1=C2c3cc4c(cc3CCN2Cc2c1ccc1c2OCO1)OCO4 | > 5 µg/mL
68 | Cc1c2[n+](cc3c4c(ccc13)OCO4)CCc1cc3c(cc1-2)OCO3.[Cl-] | > 5 µg/mL
69 | CCc1c2[n+](cc3c4c(ccc13)OCO4)CCc1cc3c(cc1-2)OCO3.[Cl-] | > 5 µg/mL
70 | CCCc1c2[n+](cc3c4c(ccc13)OCO4)CCc1cc3c(cc1-2)OCO3.[Cl-] | > 5 µg/mL
71 | CCCCc1c2[n+](cc3c4c(ccc13)OCO4)CCc1cc3c(cc1-2)OCO3.[Cl-] | > 5 µg/mL
72 | CCCCCc1c2[n+](cc3c4c(ccc13)OCO4)CCc1cc3c(cc1-2)OCO3.[Cl-] | 6.93 µM
73 | CC(C)CCc1c2[n+](cc3c4c(ccc13)OCO4)CCc1cc3c(cc1-2)OCO3.[Cl-] | > 5 µg/mL
74 | CCCCCCc1c2[n+](cc3c4c(ccc13)OCO4)CCc1cc3c(cc1-2)OCO3.[Cl-] | 6.55 µM
75 | CCCCCCCc1c2[n+](cc3c4c(ccc13)OCO4)CCc1cc3c(cc1-2)OCO3.[Cl-] | 5.86 µM
76 | CCCCCCCCc1c2[n+](cc3c4c(ccc13)OCO4)CCc1cc3c(cc1-2)OCO3.[Cl-] | 3.33 µM
77 | CCCCCCCCCc1c2[n+](cc3c4c(ccc13)OCO4)CCc1cc3c(cc1-2)OCO3.[Cl-] | > 5 µg/mL

System: not listed separately
Experiment: Cytotoxicity against human Bel7402 cells assessed as growth inhibition rate after 96 hrs by MTT assay
Type: functional, cell-based
Settings: Bel-7402, 96 h

Row | Structure (SMILES) | IC50
78 | C1=C2c3cc4c(cc3CCN2Cc2c1ccc1c2OCO1)OCO4 | > 5 µg/mL
79 | Cc1c2[n+](cc3c4c(ccc13)OCO4)CCc1cc3c(cc1-2)OCO3.[Cl-] | > 5 µg/mL
80 | CCc1c2[n+](cc3c4c(ccc13)OCO4)CCc1cc3c(cc1-2)OCO3.[Cl-] | > 5 µg/mL
81 | CCCc1c2[n+](cc3c4c(ccc13)OCO4)CCc1cc3c(cc1-2)OCO3.[Cl-] | > 5 µg/mL
82 | CCCCc1c2[n+](cc3c4c(ccc13)OCO4)CCc1cc3c(cc1-2)OCO3.[Cl-] | > 5 µg/mL
83 | CCCCCc1c2[n+](cc3c4c(ccc13)OCO4)CCc1cc3c(cc1-2)OCO3.[Cl-] | > 5 µg/mL
84 | CC(C)CCc1c2[n+](cc3c4c(ccc13)OCO4)CCc1cc3c(cc1-2)OCO3.[Cl-] | > 5 µg/mL
85 | CCCCCCc1c2[n+](cc3c4c(ccc13)OCO4)CCc1cc3c(cc1-2)OCO3.[Cl-] | 3.05 µM
86 | CCCCCCCc1c2[n+](cc3c4c(ccc13)OCO4)CCc1cc3c(cc1-2)OCO3.[Cl-] | 1.92 µM
87 | CCCCCCCCc1c2[n+](cc3c4c(ccc13)OCO4)CCc1cc3c(cc1-2)OCO3.[Cl-] | 1.43 µM
88 | CCCCCCCCCc1c2[n+](cc3c4c(ccc13)OCO4)CCc1cc3c(cc1-2)OCO3.[Cl-] | > 5 µg/mL
